Laboratory results reported in US20240374631A1, “A COMPOSITION FOR IMPROVING GUT MICROBIOTA, BEHAVIOURAL PATTERN, ALPHA-SYNUCLEIN LEVELS, SLEEP PATTERN AND/OR SERUM MELATONIN” (GN Corporation Co Ltd, priority 2021, published 2024).

System: gut microbiota
Assay: Gut microbiome analysis (16S rRNA sequencing of fecal samples) in STAM model of NASH
Type: in vivo, C57BL/6J mice
Conditions: post-intervention
Excerpt: The study is reported in accordance with Animal Research: Reporting of In Vivo Experiments (ARRIVE) guidelines. C57BL/6J mice were obtained from Japan SLC, Inc. (Japan). All animals used in this study were cared for under the following guidelines: Act on Welfare and Management of Animals (Ministry of the Environment, Japan, Act No. 105 of Oct. 1, 1973), standards relating to the care and management of laboratory animals and relief of pain (Notice No. 88 of the Ministry of the Environment, Japan, Apr. 28, 2006) and the guidelines for proper conduct of animal experiments (Science Council of Japan, Jun. 1, 2006). Protocol approvals were obtained from SMC Laboratories, Japan's IACUC (Study reference no: […] Mice were maintained in a specific pathogen-free (SPF) facility under controlled conditions of temperature (23±3° C.), humidity (50±20%), lighting (12-hour artificial light and dark cycles; light from 8:00 to 20:00) and air exchange. The STAM model of NASH was induced as previously described [D10]. Mice were given a single subcutaneous injection of 200 μg streptozotocin (STZ, Sigma-Aldrich, USA) solution 2 days after birth and fed with a high-fat diet (HFD, 57 kcal % fat, Cat #HFD32, CLEA Japan, Inc., Japan) from 4-9 weeks of age. All mice develop liver steatosis and diabetes and at […] mice had established steatohepatitis, histologically. Studygroups: There were five study groups, described below. Eight mice were included in each study group. Eight NASH mice were orally administered vehicle supplemented with AFO-202 Beta Glucan at a dose of 1 mg/kg in a volume of 5 mL/kg once daily from 6 to 9 weeks of age. Eight NASH mice were orally administered vehicle supplemented with Telmisartan at a dose of 10 mg/kg once daily from 6 to 9 weeks of age. Frequency: Fecal samples were collected at the 6 weeks of age (before administration) and 9 weeks of age (before sacrifice). Procedure: At 6 weeks of age, fecal samples were collected from each mouse by clean catch method. […] A sterile petri dish was placed on the bench. Gently massage the abdomen, position the bottom of mouse over a fresh petri dish, and collect 1-2 fecal pellets. At sacrifice, fecal samples were aseptically collected from cecum. The tubes with feces were placed on ice immediately. These tubes were snap frozen in liquid nitrogen and stored at -80° C. for shipping. In this analysis, the 16S rRNA sequence data acquired by the next-generation sequencer from the fecal […] was used to perform community analysis using the QIIME2 program for microbial community analysis. The raw read data in FASTQ format output from the next-generation sequencer was trimmed to remove adapter sequences and low QV regions that may be included in the data. Cutadapt was used to remove adapter sequences from DNA sequencing reads. Trimmomatic was used as read trimming tool for Illumina NGS data. The adapter sequence was trimmed using the adapter trimming program “cutadapt” if the Trimming of the region at the end of the read sequence overlapped the corresponding sequence by at least one base (mismatch tolerance: 20%). When reads containing N were present in at least one of Read1 and Read2, both Read1 and Read2 were removed. Trimming of low QV regions was performed on the read data after processing using the QV trimming program “Trimmomatic” under the following conditions. The window of 20 bases is slid from the 5' side, and the area where the average QV is less than 20 is trimmed. After trimming, only the reads with more than 50 bases remaining in both Read1 and Read2 were taken as output. The microbial community analysis based on 16S rRNA sequence was performed on the sequence data trimmed in the previous section using the microbial community analysis program “QIIME2”. The annotation program “sklearn” included in QIIME2 is used to annotate the ASV (OTU) sequences. […]

CCCc1nc2c(C)cc(-c3nc4ccccc4n3C)cc2n1Cc1ccc(-c2ccccc2C(=O)O)cc1 [Telmisartan]
Abundance: Ruminococcaceae, Oscillospira, — (line r190): 135 | Abundance: Ruminococcaceae, Oscillospira, — (line r191): 53 | Abundance: Lachnospiraceae, [Ruminococcus], gnavus (line r192): 87 | Abundance: Ruminococcaceae, Oscillospira, — (line r193): 42 | Abundance: Lactobacillaceae, Lactobaccilus, reuteri (line r194): 0 | Abundance: Coriobacteriaceae, Adlercreutzia, — (line r195): 0 | Abundance: Lachnospiraceae, —, — (line r196): 0 | Abundance: S24-7, —, — (line r197): 49 | Abundance: Turicibacteraceae, Turicibacter, — (line r198): 0 | Abundance: S24-7, —, — (line r199): 41 | Abundance: Rikenellaceae, —, — (line r200): 86 | Abundance: Enterobacteriaceae, Other, Other (line r201): 0 | Abundance: Rikenellaceae, Other, Other (line r202): 53 | Abundance: Lactobacillaceae, Lactobaccilus, Other (line r204): 0 | Abundance: —, —, — (line r205): 0 | Abundance: S24-7, —, — (line r206): 45 | Abundance: S24-7, —, — (line r207): 109 | Abundance: —, —, — (line r208): 19 | Abundance: Enterobacteriaceae, Klebsiella, Other (line r209): 0 | Abundance: —, —, — (line r210): 3 | Abundance: Lachnospiraceae, Other, Other (line r211): 137 | Abundance: Ruminococcaceae, Oscillospira, — (line r212): 0 | Abundance: Ruminococcaceae, Oscillospira, — (line r213): 65 | Abundance: Bacteroidaceae, Bacteroides, acidifaciens (line r214): 35 | Abundance: Erysipelotrichaceae, —, — (line r215): 0 | Abundance: Lachnospiraceae, Dorea, — (line r216): 74 | Abundance: Enterobacteriaceae, Enterobacter, Other (line r217): 41 | Abundance: Ruminococcaceae, Oscillospira, — (line r218): 45 | Abundance: Ruminococcaceae, Other, Other (line r219): 12 | Abundance: Ruminococcaceae, Oscillospira, — (line r220): 184 | Abundance: Rikenellaceae, —, — (line r221): 43 | Abundance: —, —, — (line r222): 79 | Abundance: Lachnospiraceae, Other, Other (line r223): 273 | Abundance: Other, Other, Other (line r224): 87 | Abundance: Ruminococcaceae, Oscillospira, — (line r225): 72 | Abundance: S24-7, —, — (line r226): 85 | Abundance: Lachnospiraceae, —, — (line r227): 0 | Abundance: Streptococcaceae, Staphylococcus, — (line r228): 27 | Abundance: —, —, — (line r229): 0 | Abundance: —, —, — (line r230): 0 | Abundance: —, —, — (line r231): 101 | Abundance: Other, Other, Other (line r232): 71 | Abundance: Aerococcaceae, Aerococcus, — (line r233): 187 | Abundance: Ruminococcaceae, —, — (line r234): 0 | Abundance: —, —, — (line r235): 108 | Abundance: Ruminococcaceae, Oscillospira, — (line r237): 26 | Abundance: —, —, — (line r238): 51 | Abundance: Ruminococcaceae, Ruminococcus, — (line r239): 43 | Abundance: —, —, — (line r240): 266 | Abundance: Other, Other, Other (line r241): 48 | Abundance: Ruminococcaceae, Oscillospira, — (line r242): 0 | Abundance: Lachnospiraceae, [Ruminococcus], gnavus (line r243): 95 | Abundance: Lachnospiraceae, —, — (line r244): 0 | Abundance: Other, Other, Other (line r245): 45 | Abundance: Ruminococcaceae, Oscillospira, — (line r246): 23 | Abundance: —, —, — (line r247): 90 | Abundance: Other, Other, Other (line r248): 11 | Abundance: Other, Other, Other (line r249): 53 | Abundance: Other, Other, Other (line r250): 57 | Abundance: Lachnospiraceae, Clostridium, Other (line r251): 101 | Abundance: Lachnospiraceae, —, — (line r252): 23 | Abundance: Other, Other, Other (line r253): 0 | Abundance: Other, Other, Other (line r254): 51 | Abundance: Ruminococcaceae, Oscillospira, — (line r255): 38 | Abundance: Desulfovibrionaceae, —, — (line r256): 42 | Abundance: Dehalobacteriaceae, Dehalobacterium, — (line r257): 0 | Abundance: Ruminococcaceae, Ruminococcus, — (line r259): 22 | Abundance: Lachnospiraceae, Coprococcus, — (line r260): 46 | Abundance: Ruminococcaceae, Oscillospira, — (line r261): 77 | Abundance: Other, Other, Other (line r262): 38 | Abundance: Lachnospiraceae, Coprococcus, — (line r263): 49 | Abundance: Ruminococcaceae, Oscillospira, — (line r264): 0 | Abundance: Christensenellaceae, —, — (line r265): 9 | Abundance: S24-7, —, — (line r266): 8 | Abundance: Ruminococcaceae, Oscillospira, — (line r267): 0 | Abundance: Lachnospiraceae, Coprococcus, — (line r268): 29 | Abundance: Lachnospiraceae, Other, Other (line r269): 0 | Abundance: Erysipelotrichaceae, Clostridium, cocleatum (line r271): 34 | Abundance: —, —, — (line r272): 0 | Abundance: Desulfovibrionaceae, Bilophila, — (line r273): 17 | Abundance: —, —, — (line r274): 0 | Abundance: Corynebacteriaceae, Corynebacterium, stationis (line r275): 0 | Abundance: Lachnospiraceae, Other, Other (line r276): 34 | Abundance: Lachnospiraceae, Other, Other (line r277): 82 | Abundance: Lachnospiraceae, —, — (line r278): 10 | Abundance: Lachnospiraceae, —, — (line r279): 0 | Abundance: —, —, — (line r280): 0 | Abundance: —, —, — (line r281): 84 | Abundance: —, —, — (line r282): 0 | Abundance: Ruminococcaceae, —, — (line r283): 0 | Abundance: —, —, — (line r284): 0 | Abundance: Lachnospiraceae, —, — (line r285): 0 | Abundance: Dehalobacteriaceae, Dehalobacterium, — (line r286): 43 | Abundance: Other, Other, Other (line r287): 68 | Abundance: Streptococcaceae, Streptococcus, luteciae (line r288): 0 | Abundance: —, —, — (line r289): 0 | Abundance: S24-7, —, — (line r290): 36 | Abundance: Ruminococcaceae, Ruminococcus, — (line r292): 0 | Abundance: Lachnospiraceae, Clostridium, Other (line r293): 0 | Abundance: —, —, — (line r294): 10 | Abundance: Ruminococcaceae, Oscillospira, — (line r295): 22 | Abundance: Lachnospiraceae, Coprococcus, — (line r296): 30 | Abundance: —, —, — (line r297): 0
